Results taken from patent publication US5780481A, “Method for inhibiting activation of the human A3 adenosine receptor to treat asthma” (Merck & Co., Inc., priority 1996, dated 1998).
pIC50: −log10 of the molar value. Values belong to the compound of their own block, whether it stands above or below them.

How the values were obtained:
[1] = system: ischemic reperfused myocardium; conditions: in vivo; cited from earlier work
[2] = system: hamster cheek pouch arterioles; test: Vascular constriction in hamster cheek pouch arterioles; set-up: species or system Golden hamster
Method: Adenosine, inosine, cromolyn, compound 48/80, methylene blue, acetylcholine, and components for saline solutions used to bathe arterioles are obtained from Sigma. 8(p-sulphophenyl)theo-phylline was obtained from Research Biochemicals, Inc. (Natick, Mass.).
Arterioles (luminal diameter approximately 60 μm) are dissected from male Golden hamster cheek pouches, transferred to a 37° C. tissue chamber, and cannulated at both ends (see Duling et al., Am. J. Physiol., (241) (Heart Circ. Physiol., (10) pp. H108-H116 (1981); Duling et al., Microcirculatory Technology, edited by C. H. Baker and W. G. Nastuk, Orlando Academic Press, pp. 265-280 (1986)). Changes in luminal diameter in response to abluminal delivery of adenosine (10^-8 M to 10^-4 M) are measured using videotaped microscopic observation and video calipers with continuous output, to generate cumulative concentration-response curves.
Examination of the abluminal surface of the vessel after staining with methylene blue reveal large numbers of mast cells closely associated with the vessel wall.

asthmatics = asthmatics but not nonasthmatics; cited from earlier work
[3] = system: mast cells isolated from rat peritoneum; conditions: cited from earlier work
[4] = target: T1, human A2a adenosine receptor (Homo sapiens, UniProt P29274); test: Radioligand binding assay, A2a receptor; conditions: [3H]-CGS21680; membranes of transfected COS7 cells; read-out: IC50, inhibition of specific radioligand binding to A2a receptor
T1 construct: expressed in transfected cells; host or cells: COS7 cells (transient transfection), membranes
T1 sequence (P29274 whole entry): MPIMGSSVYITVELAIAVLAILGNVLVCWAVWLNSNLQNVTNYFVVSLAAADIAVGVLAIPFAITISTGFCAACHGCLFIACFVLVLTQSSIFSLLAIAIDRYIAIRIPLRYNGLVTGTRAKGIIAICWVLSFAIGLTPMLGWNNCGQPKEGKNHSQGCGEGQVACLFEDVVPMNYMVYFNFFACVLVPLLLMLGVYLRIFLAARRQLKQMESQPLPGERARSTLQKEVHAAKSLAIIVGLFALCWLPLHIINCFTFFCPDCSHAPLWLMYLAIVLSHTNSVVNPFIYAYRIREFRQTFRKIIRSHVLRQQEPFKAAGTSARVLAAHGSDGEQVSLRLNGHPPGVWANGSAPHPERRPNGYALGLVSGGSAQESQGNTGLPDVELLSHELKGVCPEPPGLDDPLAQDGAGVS
Description: (§1) The human A1, A2a, A2b and A3 receptor subtype cDNAs were subcloned into the expression vectors pSVL (Pharmacia, Columbus, Ohio), CMV5 (Mumby, et al., PNAS, (87) pp. 728-732 (1990)) pCDNA1 or pREP (Invitrogen). Transient expression in COS7 cells (monkey kidney cell line, ATCC CRL 1651, ATCC, Rockville, Md.) (Doyl et al. WO 95/11681) was accomplished by transfection of the cloned adenosine receptor cDNAs under the control of the SV40 promoter into mammalian cells, such as COS7. Membranes prepared from the transfected cells were utilized for the determination of binding affinity, selectivity and specificity of the human adenosine receptors for various ligands. […]
(§2) Membranes prepared from transfected COS7 cells were utilized in a binding assay to measure the affinity of agonists and antagonists on the human adenosine receptors. […] Bound radioactivity was measured by scintillation counting. Binding data were analyzed by the use on nonlinear regression curve fitting program Graph Pad InPlot, Version 3.0 (Graph Pad Software, San Diego). Ki values were calculated using the Cheng-Prusoff derivation (Cheng, Y. C. and Prusoff, H. R. (1973) Biochem. Pharmacol. 22, 3099-3108). […] Nonselective binding was determined with 1 μM I-ABA for A1 and A3 receptors and 10 μM NECA for A2a receptors. Activity on A2b receptor subtypes was measured in the cAMP accumulation assay described below. […]

[5] = target: T2, human A3 adenosine receptor (Homo sapiens, UniProt P0DMS8); test: cAMP accumulation assay, A3 receptors stably expressed on CHO cells (FIG. 1); format: cell-based
T2 construct: expressed in transfected cells
T2 sequence (P0DMS8 1-318): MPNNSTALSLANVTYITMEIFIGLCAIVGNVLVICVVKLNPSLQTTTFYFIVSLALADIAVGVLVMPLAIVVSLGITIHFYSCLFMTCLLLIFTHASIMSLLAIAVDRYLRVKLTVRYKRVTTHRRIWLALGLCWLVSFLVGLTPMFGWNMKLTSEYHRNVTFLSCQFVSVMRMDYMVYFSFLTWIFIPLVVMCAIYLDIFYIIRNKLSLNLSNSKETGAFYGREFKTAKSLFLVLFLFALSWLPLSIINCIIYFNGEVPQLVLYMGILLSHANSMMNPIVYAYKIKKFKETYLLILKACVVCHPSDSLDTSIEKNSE
Method: The changes in cAMP accumulation were measured in stably transfected CHO cells expressing the human adenosine receptor subtypes. CHO cells were washed twice in phosphate buffered saline (PBS) and detached in 0.2% EDTA in PBS. After pelleting at 800 rpm for 10 min, cells were resuspended in KRH buffer (140 mM NaCl/5 mM KCl/2 mM CaCl2 /1.2 mM MgSO4 /1.2 mM KH2 PO4 /6 mM glucose/25 mM Hepes buffer, pH 7.4), washed once in KRH buffer and resuspended at 10^7 cells/mL. The cell suspension (100 μL) was mixed with 100 μL of KRH buffer containing 200 μM of the phosphodiesterase inhibitor Ro 20-1724 and incubated at 37° C. for 15 minutes. Antagonists were preincubated for 10 minutes before adding 5 μM forskolin and 60 μM adenosine. After 10 minutes, 400 μL of 100 mM acetic acid was added and the sample was boiled for 5 minutes. The supernatant was recovered by centrifugation for 15 minutes and cAMP levels were determined by radioimmunoassay ([…] kit, DuPont/NEN) using the acetylation protocol.

myocardial infarct = test: Reduction of myocardial infarct size in anesthetized dogs; format: in vivo, dog
Method: The effect of antagonist compound IV, with high affinity for canine A3 adenosine receptors, on myocardial infarct size is compared to a vehicle-treated control group in barbital-anesthetized dogs subjected to 90 minutes of left anterior descending coronary artery occlusion followed by 3 hours of reperfilsion. Vehicle (5 μM NaOH in isotonic saline) or antagonist are infused at a rate of 1 ml/min directly into the left anterior descending coronary artery distal to the occlusion site beginning 10 minutes before occlusion and are continued throughout the entire ischemic period. The myocardial region at risk and infarct size are determined by the triphenyltetrazolium histochemical technique and regional myocardial blood flow by radioactive microspheres. Coronary sinus LDH activity and histamine concentrations were measured at various times throughout the experiments and myeloperoxidase activity was determined at the conclusion of the experiments as an index of neutrophil infiltration into the ischemic-reperfused mycocardium. Ten dogs were included in this preliminary study, 4 in the vehicle-treated group and 6 in the antagonist treated group.

[6] = target: T3, human A2b adenosine receptor (Homo sapiens, UniProt P29275); test: cAMP accumulation via A2b receptors; format: cell-based; conditions: at 10 μM; stably transfected CHO cells; adenosine (10 μM) induced
T3 construct: cAMP accumulation induced by adenosine
T3 sequence (P29275 1-332): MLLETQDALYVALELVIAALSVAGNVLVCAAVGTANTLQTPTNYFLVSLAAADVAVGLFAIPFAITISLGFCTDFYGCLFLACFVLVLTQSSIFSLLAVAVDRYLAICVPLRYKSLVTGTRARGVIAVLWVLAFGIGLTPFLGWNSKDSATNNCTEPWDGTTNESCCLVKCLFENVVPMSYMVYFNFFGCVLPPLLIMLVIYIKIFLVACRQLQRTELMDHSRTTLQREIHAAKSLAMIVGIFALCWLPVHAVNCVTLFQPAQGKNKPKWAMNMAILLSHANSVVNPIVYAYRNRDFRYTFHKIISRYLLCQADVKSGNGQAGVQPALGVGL

[7] = target: T2, human A3 adenosine receptor; test: Radioligand binding assay, A3 receptor; conditions: [3H]-NECA or [125I]-ABA; membranes of transfected COS7 cells; read-out: IC50, inhibition of specific radioligand binding to A3 receptor
Method: Membranes prepared from transfected COS7 cells were utilized in a binding assay to measure the affinity of agonists and antagonists on the human adenosine receptors. […] Bound radioactivity was measured by scintillation counting. Binding data were analyzed by the use on nonlinear regression curve fitting program Graph Pad InPlot, Version 3.0 (Graph Pad Software, San Diego). […] The affinities of agonists and antagonists on human adenosine receptor subtypes were measured in competition binding assays using the radiolabeled adenosine agonists, [^3 H]-cyclo-hexyladenosine (CHA) for A1 receptors, [^3 H]-CGS21680 (2-(p-(2-carboxyethyl)-phenylamino)-5'-N-ethyl-carboxamidoadenosine) for A2a receptors and, [^3 H]-5'-N-ethylcarboxamido adenosine ([^3 H]-NECA), or [^125 I]-N^6 -aminobenzyl adenosine (^125 I-ABA) for A3 receptors. Nonselective binding was determined with 1 μM I-ABA for A1 and A3 receptors and 10 μM NECA for A2a receptors. […]

[8] = system: canine A3 adenosine receptors; test: Affinity for canine A3 adenosine receptors; format: binding
[9] = target: T4, human A1 adenosine receptor (Homo sapiens, UniProt P30542); test: Radioligand binding assay, A1 receptor; conditions: [3H]-cyclohexyladenosine (CHA); membranes of transfected COS7 cells; read-out: IC50, inhibition of specific radioligand binding to A1 receptor
T4 construct: expressed in transfected cells; host or cells: COS7 cells (transient transfection), membranes
T4 sequence (P30542 1-326): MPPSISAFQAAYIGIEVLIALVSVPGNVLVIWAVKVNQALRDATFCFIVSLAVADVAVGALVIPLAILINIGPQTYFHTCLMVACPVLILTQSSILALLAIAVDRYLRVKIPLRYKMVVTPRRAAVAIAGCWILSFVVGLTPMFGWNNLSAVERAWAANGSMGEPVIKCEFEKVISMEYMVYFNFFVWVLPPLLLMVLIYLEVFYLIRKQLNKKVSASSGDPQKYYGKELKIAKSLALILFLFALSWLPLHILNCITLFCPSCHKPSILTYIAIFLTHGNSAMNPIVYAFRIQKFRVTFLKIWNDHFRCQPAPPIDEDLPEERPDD
Description: as §1, §2

SMILES: N#Cc1cc(NC(=O)C(=O)O)c(Cl)c(NC(=O)C(=O)O)c1 [lodoxamide]
myocardial ischemic injury [1]: reduces myocardial ischemic injury

SMILES: Nc1ncnc2c1ncn2[C@@H]1O[C@H](CO)[C@@H](O)[C@H]1O [adenosine]
constrictor response of arterioles ([2]; 10^-6 M adenosine, abluminal): elicited an intense, transient constriction | dilator response of arterioles ([2]; concentrations higher than 10^-6 M adenosine): induced dilator responses | mast cell degranulation on abluminal vessel surface ([2]; following exposure to adenosine, methylene blue staining): mast cells are found to be degranulated | bronchoconstriction (asthmatics): produce bronchoconstriction in asthmatics but not in nonasthmatics | release of granule contents from mast cells [3]: potentiates the release of granule contents

SMILES: Cn1c(=O)c2[nH]c(-c3ccc(S(=O)(=O)O)cc3)nc2n(C)c1=O [8(p-sulfophenyl) theophylline]
effect on adenosine-induced constriction ([2]; pretreatment 100 μM): did not alter the constriction | effect on adenosine-induced dilator responses ([2]; pretreatment 100 μM): inhibited the dilator responses

pIC50 [4]: 4.56 | effect on basal cAMP levels ([5]; basal): no effect | effect on levels of cAMP accumulated with forskolin alone ([5]; forskolin alone): no effect | IC50, cAMP accumulation via A2b receptors [6]: inactive | pIC50 [7]: 7.89 | affinity for canine A3 adenosine receptors [8]: high affinity | pIC50 [9]: 5.28
SMILES: COC(=O)C1=C2C=CN(C)C=C2c2nc(-c3ccccc3)nn2C1 [Compound IV]
effect on inhibition of cAMP accumulation resulting from adenosine activation of A3 receptors ([5]; 10 μM compound IV, forskolin induced cAMP): prevents the inhibition of cAMP accumulation | myocardial infarct size (myocardial infarct; 90 min LAD occlusion, 3 h reperfusion, intracoronary infusion, vs vehicle): effectively reduces myocardial infarct size | hemodynamics and regional myocardial blood flow in non-ischemic left circumflex coronary artery region (myocardial infarct; at baseline or during occlusion, between groups): not different between groups | myeloperoxidase activity (myocardial infarct; between the two groups, end of experiment): not different between the two groups | arrhythmias (myocardial infarct; during occlusion and reperfusion, all animals): arrhythmias are encountered | coronary sinus LDH activity (myocardial infarct; during reperfusion): reduced | coronary sinus histamine concentrations (myocardial infarct; during reperfusion): reduced | dP/dt (myocardial infarct; during reperfusion): significantly improved | left anterior descending coronary artery blood flow (myocardial infarct; during reperfusion): significantly decreased | myeloperoxidase activity in infarcted tissue (myocardial infarct; infarcted tissue, end of experiment): tendency for reduced activity | collateral blood flow (myocardial infarct; ischemic-reperfused region, during occlusion, particularly subepicardial): slightly greater | ventricular fibrillation requiring cardioversion (myocardial infarct; some dogs from each group): some dogs from each group progress to ventricular fibrillation requiring cardioversion
